Assay results: patent publication US5332531A, “Extracting metal ions with diphosphonic acid, or derivative thereof” (priority 1992, dated 1994)
Counter-ions that a name gives are not always drawn. Like-named read-outs stand apart in the source and are kept apart here.

Key:
[1] = Dissolution of Goethite; conditions: 0.5M solution, 100 mg Goethite, 80° C., four hours
Description: One difficulty, is to ensure contact with ions "embedded" in the surface to be decontaminated. This usually requires destruction or dissolution of a surface oxide layer when the surface is metal. […] This oxide of iron is considered one of the more difficult to penetrate.

[2] = Autodecomposition / storage stability at room or ambient temperature; type: physicochemical
[3] = type: physicochemical; conditions: for resistance to degradation: mild thermal and/or oxidation conditions
Experimental: (§1) In addition, compounds were screened for their ability to readily decompose. Thermal degradation of the thermodynamically-unstable complexing agents was performed by heating the complexing agent in 8M HNO3 at 100° C. The thermal degradation of the compounds were followed by analysis via ^1 H, ^13 C and ^31 P NMR (nuclear magnetic resonance) spectroscopy. Furthermore, the water-solubility of metal ion complexes formed with the inventive complexing agents was determined by using macroquantities of neodymium (III), i.e., Nd(III); thorium (IV), i.e., Th(IV), and uranium (VI), i.e., U(VI).
As a result, autodecomposition is observed when the thermodynamically-unstable complexing agents of the present invention complex with metal ions such as ruthenium or tungsten.
(§2) After synthesis, the thermodynamically-unstable complexing agents of the present invention were tested for thermal stability and susceptibility to oxidation by using ^1 H, ^13 C and ^31 P NMR spectroscopy. Furthermore, the acid dissociation constants, i.e., the pKa values, of the thermodynamically-unstable complexing agents were determined by standard potentiometric titration methods. Finally, the thermodynamically-unstable diphosphonic acid complexing agents of the present invention were analyzed with respect to their ability to complex metal ions and with respect to the aqueous solubility of the resulting metal ion complexes. In addition, the solubility of the uncomplexed thermodynamically-unstable complexing agents was determined by using macro-concentrations of neodymium(III) as a substitute for the trivalent actinides; of thorium(IV), as a substitute for plutonium(IV) and neptunium(IV); of uranyl(VI), as representative for all actinide(VI) ions; of iron(III); and of zirconium. The variables included in this solubility determination were the thermally-unstable complexing agent-to-metal ion ratio, the metal ion concentration, and the pH.
More particularly, ^1 H, ^13 C, and ^31 P NMR spectroscopy was used to elucidate and measure the thermal degradation pathways of the thermally-unstable complexing agents of structural formula I, and to evaluate synthesis efforts. For example, ^31 P NMR spectroscopy is especially valuable in identifying the type of phosphorus compound that is synthesized or the type of phosphorous compound produced upon degradation of the thermally-unstable complexing agent. As a result, ^31 P NMR spectroscopy provides a method of showing that a particular diphosphonic acid compound actually was synthesized.

[4] = Acid dissociation constants by potentiometric (pH) titration; type: physicochemical; conditions: for pK1 / pK2 / pK3 / pK4: ionic strength 2 M (NaNO3)
Experimental: as §2
In addition, the thermodynamics of protonation of the thermodynamically-unstable complexing agents of the present invention was investigated by potentiometric (pH) titration.
The acidity constants of the thermodynamically-unstable complexing agents are important in the interpretation of metal ion complexation studies, and also serve as a preliminary indicator of metal ion complex stability and conformation. TABLE III summarizes the acid dissocation constants (pKa) of three substituted diphosphonic acids of the present invention. The acid dissociation constants of oxalic and phosphoric acids are included for comparison.
Metal ion complexation with the thermodynamically-unstable complexing agent was investigated using the solvent extraction distribution ratio method. The medium used in all of the protonation and complexation studies was 2.0M NaNO3 /HNO3. The relatively high ionic strength of this medium was utilized in order to minimize interferences due to activity coefficient changes. Data interpretation in all experiments was accomplished by the application of a generic least-squares program written in BASIC. The program applies a Newton-Raphson type iterative process to the data and minimizes the sum of squares of the residuals. The generic program was adapted to several different forms to fit distribution ratio lowering (Do/D) vs. free ligand concentration measurements, and p (average proton number) data from potentiometric titrations.

[5] = Aqueous solubility of metal ion complexes; type: physicochemical
Experimental: as §1, §2

[6] = 1 M ionic strength, included for comparison; cited from earlier work
[7] = Removal of uranium from groundwater, supported liquid membrane-based process; conditions: 60° to 70° C. overnight, strip solution with uranium
Description: Aqueous solutions of the thermodynamically-unstable complexing agents of the present invention can be used in commercially available supported liquid membrane-based modules to strip metal ion contaminants from aqueous solution. Other devices using a porous membrane separating means can also be used. In general the aqueous solution containing uranium is in contact with one side of the porous membrane and the aqueous solution of the complexing agent is in contact with the other. A known organic extractant is permeated into the pores of the membrane to carry the metal ions from one side to the other. The aqueous solution of the complexing agent strips metal ions from the organic extractant in the pores, driving the extraction "reaction" toward removal of metal ions from the solution to be decontaminated.
Aqueous solutions of the thermodynamically-unstable complexing agent described in this application are useful as stripping agents in a supported liquid membrane-based process for removal of uranium contaminants from groundwater. In this process, groundwater containing 10^-4 M uranium is acidified to pH of 2 by addition of small amounts of sulfuric acid and passed through porous polypropylene hollow fibers in a supported liquid membrane module. The pores of the membrane are filled with 0.1M bis(2,4,4-trimethylpentyl)phosphinic acid in n-dodecane. […]

## O=C(O)CC(=O)O [malonic acid, reference compound]
[1]
  Goethite dissolved: 8%

## O=C(O)C(O)(P(=O)(O)O)P(=O)(O)O [compound VII, carboxyhydroxymethanediphosphonic acid]
[2]; free acid form
  products of autodecomposition: carbon dioxide, water and phosphoric acid
[2]; free acid form, room temperature
  half-life of autodecomposition (in words): from about two days to about three days

## CC(O)(P(=O)(O)O)P(=O)(O)O [HEDPA, 1-hydroxyethane-1,1-diphosphonic acid, reference compound]
[3]
  resistance to degradation: ability to resist decomposition
[3]; listed as compound VIII
  resistance to degradation: resisted degradation under mild thermal and/or oxidation conditions
[4]
  pK1: 1.53
  pK2: 2.16
  pK3: 6.18
  pK4: 9.09
[5]; acid media
  aqueous solubility of neodymium (III) complexes: only moderate aqueous solubilities
  aqueous solubility of thorium (IV) complexes: only moderate aqueous solubilities

## O=C(O)C(=O)O [Oxalic Acid, oxalic acid]
[6]
  pK2: 3.55

## O=P(O)(O)C(O)(CO)P(=O)(O)O [tetrasodium salt of compound X]
[2]; sodium (tetrasodium) salt form
  stability: stable indefinitely at room temperature

## O=P(O)(O)C(O)(CO)P(=O)(O)O [DHEDPA, 1,2-dihydroxyethane-1,1-diphosphonic acid]
[3]; free acid form, boiling 8M HNO3
  time to total decomposition: about 3 hours
[3]; free acid form, hydrogen peroxide at about 60° C.
  decomposition: totally decomposes
[4]; TABLE III comparison
  acid strength (in words): strongest acid
[4]
  pK1: 0.91
  pK2: 1.59
  pK3: 5.82
  pK4: 7.97
[2]; free acid form
  products of autodecomposition: water, carbon dioxide and phosphoric acid
[2]; free acid form, as taught by prior art patent references
  conversion on previous attempts to isolate free acid: essentially immediate conversion
[2]; free acid form, room / ambient temperature
  half-life of autodecomposition: about 15 days
[2]; free acid form, listed as compound X
  products of autodecomposition: phosphorous and phosphoric acids
[2]; sodium (tetrasodium) salt form, listed as 1,2-dihydroxyethane-1,1-diphosphonic acid
  stability: stable indefinitely

## C=C(P(=O)(O)O)P(=O)(O)O [VDPA, vinylidenediphosphonic acid]
[3]; aqueous hydrogen peroxide, moderately elevated temperatures
  decomposition: decomposes within hours
[3]; boiling nitric acid
  decomposition: decomposes within hours
[3]; hydrogen peroxide, metal catalyzed
  decomposition by metal catalyzed oxidation: readily decomposed
[3]; salts of vanadium(V)
  decomposition after complexing with a metal ion: can be decomposed by salts of vanadium(V) under very mild conditions
[4]
  pK1: 1.41
  pK2: 2.05
  pK3: 5.98
  pK4: 8.58
[5]; acidic media
  solubility of metal ion complexes: very soluble
[7]
  time of destruction by heating: about 5 hours
[1]
  Goethite dissolved: 40%
[2]; free acid form
  stability: stable
[2]; sodium (tetrasodium) salt form
  stability: stable
